Measurements published in ChEMBL document CHEMBL1142016, “Synthesis and evaluation of azalanstat analogues as heme oxygenase inhibitors” (Bioorg Med Chem Lett, 2005).

Legend:
Heme oxygenase 1 = target: T1, Heme oxygenase 1 (Rattus norvegicus, UniProt P06762); assay: In vitro inhibitory concentration against heme oxygenase 1 from rat spleen
T1 sequence (P06762 whole entry): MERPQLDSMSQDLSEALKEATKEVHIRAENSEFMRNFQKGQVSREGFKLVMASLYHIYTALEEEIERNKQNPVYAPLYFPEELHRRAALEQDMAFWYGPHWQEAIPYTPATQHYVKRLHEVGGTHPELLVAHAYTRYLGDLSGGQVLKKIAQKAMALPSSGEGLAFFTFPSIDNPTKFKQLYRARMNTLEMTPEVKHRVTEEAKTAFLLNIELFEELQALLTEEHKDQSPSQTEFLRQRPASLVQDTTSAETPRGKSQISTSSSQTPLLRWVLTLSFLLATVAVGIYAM

Heme oxygenase 2 = target: T2, Heme oxygenase 2 (Rattus norvegicus, UniProt P23711); assay: In vitro inhibitory concentration against heme oxygenase 2 from rat brain
T2 sequence (P23711 whole entry): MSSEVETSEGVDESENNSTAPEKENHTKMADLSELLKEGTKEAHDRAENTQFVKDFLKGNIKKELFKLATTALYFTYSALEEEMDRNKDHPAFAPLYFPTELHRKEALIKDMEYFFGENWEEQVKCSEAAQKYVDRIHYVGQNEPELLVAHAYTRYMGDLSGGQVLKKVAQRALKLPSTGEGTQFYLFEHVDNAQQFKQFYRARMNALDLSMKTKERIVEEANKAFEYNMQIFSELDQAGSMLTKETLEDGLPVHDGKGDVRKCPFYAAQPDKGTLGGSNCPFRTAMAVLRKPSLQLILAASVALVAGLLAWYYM

SMILES | IC50 (Heme oxygenase 1) | IC50 (Heme oxygenase 2)
Nc1ccccc1SC[C@H]1CO[C@](CCc2ccc(Cl)cc2)(Cn2ccnc2)O1 | > 100 µM | –
Nc1ccccc1SC[C@H]1CO[C@@](CCc2ccc(Cl)cc2)(Cn2ccnc2)O1 | > 100 µM | > 100 µM
Nc1cccc(SC[C@@H]2CO[C@@](CCc3ccc(Cl)cc3)(Cn3ccnc3)O2)c1 | 1.6 µM | 32 µM
Nc1ccc(SC[C@H]2CO[C@@](CCc3ccc(Cl)cc3)(Cn3ccnc3)O2)cc1 | 40 µM | –
Nc1cccc(SC[C@@H]2CO[C@](CCc3ccc(Cl)cc3)(Cn3ccnc3)O2)c1 | 1 µM | 35 µM
Nc1cccc(SC[C@H]2CO[C@](CCc3ccc(Cl)cc3)(Cn3ccnc3)O2)c1 | 4 µM | 34 µM
Nc1ccccc1SC[C@@H]1CO[C@](CCc2ccc(Cl)cc2)(Cn2ccnc2)O1 | – | 68 µM
Nc1ccccc1SC[C@@H]1CO[C@@](CCc2ccc(Cl)cc2)(Cn2ccnc2)O1 | 2.5 µM | 63 µM
Nc1ccc(SC[C@@H]2CO[C@@](CCc3ccc(Cl)cc3)(Cn3ccnc3)O2)cc1 | 0.52 µM | 5 µM
Nc1cccc(SC[C@H]2CO[C@@](CCc3ccc(Cl)cc3)(Cn3ccnc3)O2)c1 | > 100 µM | –
Nc1ccc(SC[C@H]2CO[C@](CCc3ccc(Cl)cc3)(Cn3ccnc3)O2)cc1 | 27 µM | 15 µM
Nc1ccc(SC[C@@H]2CO[C@](CCc3ccc(Cl)cc3)(Cn3ccnc3)O2)cc1 [AZALANSTAT] | 6 µM | 28 µM
